From patent publication US4771055A, “7-[[3-(aminomethyl)-3-alkyl]-1-pyrrolidinyl]-quinoline-carboxylic acids” (Warner-Lambert Company, priority 1987, dated 1988)
Values after ≈ are worked out from the molar mass of the structure shown. Like-named read-outs stand apart in the source and are kept apart here.

Columns and labels:
S. aureus = experiment: Acute mouse protection test (PD50); assay type: in vivo; conditions: Staphylococcus aureus, mice, read-out: Protective Dose 50% PD50
Method: (§1) The advantage of the compounds of the present invention has been observed when tested orally and compared to a standard quinolone where the 7-position contains a corresponding 3-aminomethylpyrrolidinyl group without the additional 3-alkyl or cycloalkyl substituent.
(§2) Therapeutic activities of the compounds were compared to acute mouse protection tests in which 18- to 22-g female Charles River CD-1 mice were used. Oral or subcutaneous doses in twofold rising incremental series were administered concurrently with bacterial challenge. Challenges were accomplished by the intraperitoneal injection of an estimated 100 medial lethal doses in 0.5 ml volumes of 5% hog gastric mucin or tryptic soy broth. Generally, >90% of the untreated controls died within 48 to 72 hours. Final survival percentages, obtained after four to seven days of observation among groups of 8 to 16 mice, were pooled and used to estimate median protective doses (PD50) by the log-probit method. Ideally a PO/SC ratio for a therapeutically relevant antibacterial should be ≤5. Table 2 indicates the improvement in PO/SC ratio.

P. aerug. = experiment: Acute mouse protection test (PD50); assay type: in vivo; conditions: mice, read-out: Protective Dose 50% PD50
Method: as §1, §2

E. coli = experiment: Acute mouse protection test (PD50); assay type: in vivo; conditions: Escherichia coli, mice, read-out: Protective Dose 50% PD50
Method: as §1, §2

S. pyog. = experiment: Acute mouse protection test (PD50); assay type: in vivo; conditions: mice, read-out: Protective Dose 50% PD50
Method: as §1, §2

[1] = test system: Streptococcus faecalis MGH-2; experiment: In vitro antibacterial activity, MIC, microtitration dilution method; assay type: cell-based; conditions: Enterococcus faecalis, MGH2, read-out: Minimal Inhibitory Concentration MIC
Description: (§3) The compounds of the invention display potent antibacterial activity against both gram-positive and -negative bacteria when tested by the microtitration dilution method as described in Heifetz, et al, Antimicr. Agents & Chemoth., 6, 124 (1974), which is incorporated herein by reference.

[2] = test system: Streptococcus pneumoniae SV-1; experiment: as above; assay type: cell-based; conditions: SV1, read-out: Minimal Inhibitory Concentration MIC
Description: as §3

[3] = test system: Staphylococcus aureus UC-76; experiment: as above; assay type: cell-based; conditions: UC76, read-out: Minimal Inhibitory Concentration MIC
Description: as §3

Proteus rettgeri M 1771 = experiment: as above; assay type: cell-based; conditions: Providencia rettgeri, M1771, read-out: Minimal Inhibitory Concentration MIC
Description: as §3

[4] = test system: Enterobacter cloacae MA 2646; experiment: as above; assay type: cell-based; conditions: MA2646, read-out: Minimal Inhibitory Concentration MIC
Description: as §3

[5] = test system: Klebsiella pneumoniae MGH-2; experiment: as above; assay type: cell-based; conditions: MGH2, read-out: Minimal Inhibitory Concentration MIC
Description: as §3

Escherichia coli Vogel = experiment: as above; assay type: cell-based; conditions: read-out: Minimal Inhibitory Concentration MIC
Description: as §3

[6] = test system: Staphylococcus aureus H 228; experiment: as above; assay type: cell-based; conditions: H228, read-out: Minimal Inhibitory Concentration MIC
Description: as §3

[7] = test system: Pseudomonas aeruginosa UI-18; experiment: as above; assay type: cell-based; conditions: UI18, read-out: Minimal Inhibitory Concentration MIC
Description: as §3

[8] = test system: Streptococcus pyogenes C-203; experiment: as above; assay type: cell-based; conditions: C203, read-out: Minimal Inhibitory Concentration MIC
Description: as §3

[9] = test system: E. coli, P. aerug., S. aureus, S. pyog.; experiment: Acute mouse protection test, oral versus subcutaneous activity over all organisms; assay type: in vivo, mice; conditions: for PO/SC Ratio: ratio of PD50 PO to PD50 SC over the four organisms, mice
Method: as §1, §2

[10] = test system: gram-positive and -negative bacteria; experiment: In vitro antibacterial activity, microtitration dilution method (overall); assay type: cell-based; conditions: comparison with Compound A
Description: as §3

| Compound | MIC [1] [µg/mL] | MIC [2] [ng/mL] | MIC [3] [µg/mL] | MIC (Proteus rettgeri M 1771) [µg/mL] | MIC [4] [µg/mL] | MIC [5] [µg/mL] | MIC (Escherichia coli Vogel) [µg/mL] | MIC [6] [µg/mL] | MIC [7] [µg/mL] | MIC [8] [µg/mL] | ED50 (S. aureus; PO) [mg/kg] | ED50 (S. aureus; SC) [mg/kg] | ED50 (P. aerug.; PO) [mg/kg] | ED50 (P. aerug.; SC) [mg/kg] | ED50 (E. coli; PO) [mg/kg] | ED50 (E. coli; SC) [mg/kg] | ED50 (S. pyog.; PO) [mg/kg] | ED50 (S. pyog.; SC) [mg/kg] | PO/SC Ratio [9] | further results |
| --- | --- | --- | --- | --- | --- | --- | --- | --- | --- | --- | --- | --- | --- | --- | --- | --- | --- | --- | --- | --- |
| NCC1CCN(c2c(F)cc3c(=O)c(C(=O)O)cn(C4CC4)c3c2F)C1 (stereo not shown) [Compound A, 7-[3-(aminomethyl)-1-pyrrolidinyl]-1-cyclopropyl-6,8-difluoro-1,4-dihydro-4-oxo-3-quinolinecarboxylic acid, reference compound] | 0.1 (≈ 0.275 µM) | 12 (≈ 0.033 µM) | 0.013 (≈ 0.0358 µM) | 0.8 (≈ 2.2 µM) | 0.8 (≈ 2.2 µM) | 0.4 (≈ 1.1 µM) | 0.2 (≈ 0.55 µM) | 0.1 (≈ 0.275 µM) | 0.8 (≈ 2.2 µM) | 0.012 (≈ 0.033 µM) | 10 | 1 | > 100 | 3 | 13 | 1 | 4 | 0.4 | ≥ 10 | – |
| CC1(CN)CCN(c2c(F)cc3c(=O)c(C(=O)O)cn(C4CC4)c3c2F)C1 (stereo not shown) [Example 1, 7-[[3-(Aminomethyl)-3-methyl]-1-pyrrolidinyl]-1-cyclopropyl-6,8-difluoro-1,4-dihydro-4-oxo-3-quinolinecarboxylic acid] | 0.013 (≈ 0.0344 µM) | 6 (≈ 0.0159 µM) | ≤ 0.003 | 0.2 (≈ 0.53 µM) | 0.025 (≈ 0.0662 µM) | 0.1 (≈ 0.265 µM) | 0.05 (≈ 0.132 µM) | 0.013 (≈ 0.0344 µM) | 0.4 (≈ 1.06 µM) | 0.025 (≈ 0.0662 µM) | 5 | 2 | 38 | 18 | 2 | 1 | 9 | 3 | ≤ 3 | in vitro activity compared to Compound A [10]: comparable in vitro activity; oral activity in mice compared to Compound A ([9]; PD50, mouse protection, comparison with Compound A): greater oral activity in mice |
| CC1(CN)CCN(c2nc3c(cc2F)c(=O)c(C(=O)O)cn3C2CC2)C1 (stereo not shown) [Example 3, 7-[[3-(Aminomethyl)-3-methyl]-1-pyrrolidinyl]-1-cyclopropyl-6-fluoro-1,4-dihydro-4-oxo-1,8-naphthyridine-3-carboxylic acid] | 0.05 (≈ 0.139 µM) | 25 (≈ 0.0694 µM) | 0.013 (≈ 0.0361 µM) | 0.8 (≈ 2.22 µM) | 0.1 (≈ 0.277 µM) | 0.2 (≈ 0.555 µM) | 0.4 (≈ 1.11 µM) | 0.05 (≈ 0.139 µM) | 0.8 (≈ 2.22 µM) | 0.05 (≈ 0.139 µM) | – | – | – | – | – | – | – | – | – | – |

Second part, led by results:

| MIC [1] [µg/mL] | MIC [2] [ng/mL] | MIC [3] [µg/mL] | MIC (Proteus rettgeri M 1771) [µg/mL] | MIC [4] [µg/mL] | MIC [5] [µg/mL] | MIC (Escherichia coli Vogel) [µg/mL] | MIC [6] [µg/mL] | MIC [7] [µg/mL] | MIC [8] [µg/mL] | Compound | ED50 (S. aureus; PO) [mg/kg] | ED50 (S. aureus; SC) [mg/kg] | ED50 (P. aerug.; PO) [mg/kg] | ED50 (P. aerug.; SC) [mg/kg] | ED50 (E. coli; PO) [mg/kg] | ED50 (E. coli; SC) [mg/kg] | ED50 (S. pyog.; PO) [mg/kg] | ED50 (S. pyog.; SC) [mg/kg] | PO/SC Ratio [9] | further results |
| --- | --- | --- | --- | --- | --- | --- | --- | --- | --- | --- | --- | --- | --- | --- | --- | --- | --- | --- | --- | --- |
| 0.025 (≈ 0.0637 µM) | ≤ 3 | ≤ 0.003 | 0.4 (≈ 1.02 µM) | 0.1 (≈ 0.255 µM) | 0.1 (≈ 0.255 µM) | 0.1 (≈ 0.255 µM) | 0.013 (≈ 0.0331 µM) | 0.8 (≈ 2.04 µM) | 0.013 (≈ 0.0331 µM) | CC1(CN)CCN(c2c(F)c(N)c3c(=O)c(C(=O)O)cn(C4CC4)c3c2F)C1 (stereo not shown) [Example 2, 5-Amino-7-[[3-(aminomethyl)-3-methyl]-1-pyrrolidinyl]-1-cyclopropyl-6,8-difluoro-1,4-dihydro-4-oxo-3-quinolinecarboxylic acid] | – | – | – | – | – | – | – | – | – | – |
| 0.013 (≈ 0.033 µM) | ≤ 3 | ≤ 0.003 | 0.1 (≈ 0.254 µM) | 0.05 (≈ 0.127 µM) | 0.05 (≈ 0.127 µM) | 0.025 (≈ 0.0635 µM) | 0.013 (≈ 0.033 µM) | 0.2 (≈ 0.508 µM) | 0.013 (≈ 0.033 µM) | CC1(CN)CCN(c2c(F)cc3c(=O)c(C(=O)O)cn(C4CC4)c3c2Cl)C1 (stereo not shown) [Example 4, 7-[3-(Aminomethyl)-3-methyl-1-pyrrolidinyl]-8-chloro-1-cyclopropyl-6-fluoro-1,4-dihydro-4-oxo-3-quinolinecarboxylic acid] | – | – | – | – | – | – | – | – | – | – |
